These results are taken from patent US8569489B2 (A.B. Intelpharm Limited, priority 2007, dated 2013).

Series [1] has as its system H1-histamine receptors (bronchoconstrictor effect of histamine). The series can be described thus: Anesthetized guinea pigs, antagonism of the bronchoconstrictor effect of histamine (histamine bronchospasm model). In kind it is in vivo, guinea pig. Particulars: for ED50: Cavia porcellus; for Duration of effective blockade of H1-histamine receptors: histamine bronchospasm model, oral dose of 3 mg/kg. As for the experimental part: In tests on intact animals, substances were administered intravenously (5 minutes before the administration of histamine) and orally (2 hours before the beginning of the study).

For series [2], the system named is histamine-induced itch. The series can be described thus: Itching induced by instillation of histamine solution into the eye of conscious guinea pigs. It is filed as in vivo, guinea pig. Particulars: 3 mg/kg administered orally. From the text:
(Rukovodstvo po […] [Manual on experimental study of new pharmacological substances], Moscow, 2005, p. 511)

Series [3] deals with mice. Particulars: mice perorally; literature value (footnotes * and **); cited from earlier work.
In series [4] the test system is isolated guinea pig ileum (spasmogenic effect of histamine). The series is described as follows: Isolated guinea pig ileum, suppression of the spasmogenic effect of histamine. In kind it is cell-based. Particulars: histamine spasm, read-out: Antihistaminic activity, isolated ileum of guinea pig, IC50. From the text: Study of the antihistaminic activity of the compounds on which a claim is made was done using known methodologies (Rukovodstvo po eksperimental'nomu izucheniyu novykh farmakologicheskikh veshchestv [Manual on experimental study of new pharmacological substances], Moscow, 2005, p. 489) on isolated guinea pig ileum (suppression of the spasmogenic effect of histamine) and on anesthetized guinea pigs (antagonism in relation to the bronchoconstrictor effect of histamine). In tests on intact animals, substances were administered intravenously (5 minutes before the administration of histamine) and orally (2 hours before the beginning of the study).

For series [5], the system named is passive cutaneous anaphylaxis. The series can be described thus: Passive cutaneous anaphylaxis model in rats. It is filed as in vivo, rat. From the text: (Rukovodstvo po eksperimental'nomu izucheniyu novykh farmakologicheskikh veshchestv [Manual on experimental study of new pharmacological substances], Moscow, 2005, p. 511)
Series [6] concerns mice. The series can be described thus: Acute toxicity, mice perorally.
Series [7] in a line: pH of aqueous solution of salts. It is filed as physicochemical.
A short description of series [8]: Thermal stability.
[9] abbreviates: po, anesthetized guinea pigs, orally 2 hours before the study, read-out: Antihistaminic activity, guinea pigs in vivo, peroral administration, ED50.
Setting [10] is: anesthetized guinea pigs, intravenous, 5 minutes before histamine, read-out: Antihistaminic activity, guinea pigs in vivo, intravenous administration, ED50.

Where two headings read alike, the source gives them in different places.

For the molecule `CN1CCCC(n2nc(Cc3ccc(Cl)cc3)c3ccccc3c2=O)CC1` (centres unmarked) [Azelastine, reference compound], the ED50 in series [1] (setting [9]) is 0.015 mg/kg; in series [1] (setting [10]) it was 0.05 mg/kg. Besides, the “Duration of effective blockade of H1-histamine receptors” value (from here on “Duration … of H1-histamine receptors”) in series [1] stood at 48 h. In series [2], the “Duration of the protective effect in the histamine-induced itch model” value (“Duration of the protective effect” for short) is “diminishes significantly after 48 hours and disappears altogether after 72 hours”. Also, in series [3], the “Acute toxicity, LD50” value is on record as 124-139** mg/kg.
Turning to `O=C(O)COCCN1CCN(C(c2ccccc2)c2ccc(Cl)cc2)CC1` (centres unmarked) [Cetirizine, reference compound], the IC50 – broadly, the concentration at which inhibition is half-maximal – in series [4] (Cavia porcellus) was 127 nM. Also, the results for the ED50 in series [1] (setting [9]) and in series [1] (setting [10]) were 0.2 mg/kg and 0.07 mg/kg, respectively. In addition, in series [1], the “Duration … of H1-histamine receptors” value worked out at 48 h. Besides, the “Duration of the protective effect” value in series [2] is “diminishes significantly after 48 hours and disappears altogether after 72 hours”. Also, the “Antiallergic effect, passive cutaneous anaphylactic model” value in series [5] (dose 3 mg/kg) is “moderate and similar antiallergic effect”.
As to `Cn1c(=O)[nH]c(=O)c2c1ncn2CCCCN1CCN(C(c2ccccc2)c2ccccc2)CC1` [II-g, 3-methyl-7-[4-(benzhydryl-4-piperazinyl-1)butyl]xanthine], in series [4], the IC50 came to 18 nM. The “Antihistaminic activity, guinea pigs in vivo, intravenous administration, ED50” value in series [1] (anesthetized guinea pigs, intravenous, 5 minutes before histamine) came out at 0.02 mg/kg. For the same molecule, the “Antihistaminic activity, guinea pigs in vivo, peroral administration, ED50” value in series [1] (anesthetized guinea pigs, orally 2 hours before the study) was 0.02 mg/kg. For the same molecule, the “Duration … of H1-histamine receptors” value in series [1] came to 72 h. Also, the “Duration of the protective effect” value in series [2] is “remains at a stable level for 2 days and decreases only after 72 hours”. The “Antiallergic effect, passive cutaneous anaphylactic model” value in series [5] (dose 1 mg/kg) is “moderate and similar antiallergic effect”. Besides, the “Acute toxicity, LD50” value in series [6] stood at 1300.0 mg/kg.
As for `Cn1c(=O)[nH]c(=O)c2c1ncn2CCCCN1CCN(C(c2ccccc2)c2ccccc2)CC1.O=C(O)CCC(=O)O` [Succinate, 7-/4-(4-benzhydrylpiperazinyl-1)butyl/-3-methylxanthine succinate], the “pH of aqueous solution” value in series [7] is recorded as 4.85. The Thermal stability entry in series [8] is given as “good thermal stability”.
